The text below walks through data of article PMC8218542, “Iodine-catalyzed electrophilic substitution of indoles: Synthesis of (un)symmetrical diindolylmethanes with a quaternary carbon center” (Beilstein Journal of Organic Chemistry, 2021).

Entries after “also recorded” stand apart in the source; their conditions may differ. Read-outs that look alike come from different tables or passages of the source.

Test [1] concerns the target T1, Human CB1 receptor (Homo sapiens, UniProt P21554). The test is described as follows: Radioligand binding assay vs [3H]CP55,940, membranes of CHO cells expressing human CB1. To be noted: CHO cell membranes. The method, then:
(§1) Radioligand b inding assays at CB1 and CB 2 receptors
(§2) Competition binding assays were performed using the CB receptor agonist radioligand [3H](−)- cis-3-[2-hydroxy-4-(1,1-dimethylheptyl)phenyl]-trans-4-(3-hydroxypropyl)-cyclohexanol as previously described [S1]. Briefly, membrane preparations of Chinese hamster ovary (CHO) cells stably expressing human CB1 or CB2 receptor were used (30 μg of protein/well for CB1 and 16 µg of protein/well for CB2-receptor preparations). All stock solutions of test compounds ([…]) were prepared in DMSO. After 2 h of incubation, a mixture containing 15 μL of the […]
(§3) mM MgCl2, 0.1% BSA, pH 7.4), 60 μL of membrane preparation (in 50 mM TRIS buffer) and 465 μL of assay buffer, were filtered through GF/C glass fiber filters (presoaked for 0.5 h in 0.3% aq. polyethyleneimine solution), using a Brandel 96-channel cell harvester (Brandel, Gaithersburg, MD). Radioactivity on the filters was then measured in a liquid scintillation counter (Topcount NXT, Packard/Perkin-Elmer) after 10 h of preincubation with 50 µl of scintillation cocktail (Multiscint 25, Perkin-Elmer). […]

Test [2] deals with T2, Human CB2 receptor (Homo sapiens, UniProt P34972). The test is described as follows: Radioligand binding assay vs [3H]CP55,940, membranes of CHO cells expressing human CB2. Also on record: expressed in transfected cells; membrane preparations. Conditions: CHO cell membranes. The method, then:
as §1, §2, §3

The subject of test [3] is control HEK293 cells. Description: Trupath BRET2 assay in control HEK293 cells transfected with only Gαi1-Rluc8, ß3 and γ9-GFP2. The format is cell-based. Conditions: cells without CB receptor. On the technique in general: In BRET a luciferase serves as donor, and the signal depends on an acceptor being close.
The target in test [4] is T1, Human CB1 receptor. The test is described as follows: Trupath BRET2 functional assay in HEK293 cells transfected with human CB1. The format is cell-based. Also on record: expressed in transfected cells; host or cells: HEK293 cells, transient transfection (Lipofectamine 2000); receptor in pcDNA3.1(+); Trupath plasmids Addgene kit #1000000163. Conditions: for agonistic activity at human CB1: agonist mode, BRET2; for IC50: read-out: IC50, blockade of CB1 receptor activation. Here is the method:
(§4) Functional assays at CB1 and CB2 receptors
(§5) Functional assays of the selected compounds were assessed using the Trupath BRET 2 assay system as recently described [S2]. The Trupath plasmids were a gift from Bryan Roth’s Laboratory (Addgene kit #1000000163). Briefly, HEK293 cells were seeded in a 6 well-plate at adensity of 700.000 cells/well and incubated for 4h. Plasmids containing Gαi1-Rluc8, ß3 and γ9-GFP2 and either human CB 1 or CB2 in pcDNA3.1(+) at a ratio of 1:1:1:1 were mixed with Lipofectamine 2000 and transfected according to the manufacturer’s protocol. The cells were further incubated overnight, then harvested and seeded at a density of 40.000 cells/well in 96 well-plates with full growth medium, and cultured for another 24h. On the day of the […]
(§6) culture medium was carefully discarded and replaced by 60 µL of HBSS-HEPES buffer, followed by the addition of 10 µL of 50 µM Coelenterazine 400a. For testing of agonistic activity, the test compounds were added to the wells in a volume of 30 µL and incubated for 5 min. For antagonist testing, compounds were added in a volume of 15 µL, incubated for 5 min, […]
(§7) incubated for another 5 min. Test compounds were dissolved in DMSO and the final DMSO concentration in the assays was 1%. Finally, the signal was measured using a Mitras LB400 according to previously published literature[S3]. Data were obtained from 3-4independent experiments performed in duplicate.

In test [5] the target is T2, Human CB2 receptor. Description: Trupath BRET2 functional assay in HEK293 cells transfected with human CB2. In kind it is cell-based. Also noted: expressed in transfected cells; host or cells: HEK293 cells, transient transfection (Lipofectamine 2000); receptor in pcDNA3.1(+); Trupath plasmids Addgene kit #1000000163. Conditions: for agonistic activity at human CB2: agonist mode, BRET2. Here is the method:
as §4, §5, §6, §7

In test [6] the target is T1, Human CB1 receptor. Also on record: method as in PMID 7565624. To be noted: previously reported; cited from earlier work.
The subject of test [7] is CB1 receptors. Also noted: method as in PMID 19286662. Conditions: previously shown; cited from earlier work.
In test [8] the target is T2, Human CB2 receptor. Also noted: expressed in transfected cells; membrane preparations; method as in PMID 7565624. To be noted: previously reported; cited from earlier work.

T2 sequence (P34972 whole entry): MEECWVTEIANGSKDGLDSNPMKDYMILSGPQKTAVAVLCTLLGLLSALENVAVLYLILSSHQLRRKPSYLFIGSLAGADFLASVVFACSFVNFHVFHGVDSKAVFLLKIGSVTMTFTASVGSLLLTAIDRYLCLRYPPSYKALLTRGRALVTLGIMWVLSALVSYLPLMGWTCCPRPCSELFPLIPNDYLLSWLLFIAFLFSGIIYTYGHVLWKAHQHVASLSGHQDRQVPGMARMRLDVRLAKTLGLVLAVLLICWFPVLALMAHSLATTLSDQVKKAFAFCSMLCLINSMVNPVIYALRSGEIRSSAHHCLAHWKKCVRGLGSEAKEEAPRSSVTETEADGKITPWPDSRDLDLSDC
T1 sequence (P21554 whole entry): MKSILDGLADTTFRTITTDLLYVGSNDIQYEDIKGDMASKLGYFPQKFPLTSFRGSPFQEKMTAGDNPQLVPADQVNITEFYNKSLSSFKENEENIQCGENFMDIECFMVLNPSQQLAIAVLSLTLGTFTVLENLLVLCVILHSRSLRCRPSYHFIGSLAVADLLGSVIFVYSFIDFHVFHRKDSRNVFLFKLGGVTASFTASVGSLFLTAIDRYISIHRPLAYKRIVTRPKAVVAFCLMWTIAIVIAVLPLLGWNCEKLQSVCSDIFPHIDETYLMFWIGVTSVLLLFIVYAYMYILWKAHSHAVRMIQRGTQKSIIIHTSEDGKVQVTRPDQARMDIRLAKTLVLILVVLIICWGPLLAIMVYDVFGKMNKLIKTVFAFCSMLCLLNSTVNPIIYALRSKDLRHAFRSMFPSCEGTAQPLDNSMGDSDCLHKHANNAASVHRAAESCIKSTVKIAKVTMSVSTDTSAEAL

What is called Ki is a dissociation constant, usually derived from enzyme kinetics or from competition with a known ligand. As to `COc1ccc2[nH]cc(C(c3ccccc3)(c3c[nH]c4c(Br)cccc34)C(F)(F)F)c2c1` (stereo not shown) [3g], the inhibitory constant (Ki) was determined as 4.02 ± 0.22 µM in test [1] and 4.62 ± 0.33 µM in test [2].
`COc1ccc2[nH]cc(C(c3ccccc3)(c3c[nH]c4cccc(OC)c34)C(F)(F)F)c2c1` (stereo not shown) [3b]: the figures for the inhibitory constant (Ki) in test [1] and in test [2] were 7.64 ± 0.8 µM and 4.75 ± 0.34 µM, respectively.
On to `COc1ccc2[nH]cc(C(c3ccccc3)(c3c[nH]c4cc(F)c(F)cc34)C(F)(F)F)c2c1` (stereo not shown) [3h], for which the results for the inhibition constant Ki in test [1] and in test [2] were 4.78 ± 1.26 µM and 9.9 ± 1.45 µM, respectively.
As usually defined, the IC50 is the concentration needed to halve the response being measured. As to `COc1ccc2[nH]cc(C(c3ccccc3)(c3c[nH]c4ccccc34)C(F)(F)C(F)(F)F)c2c1` (stereo not shown) [3ad], the inhibition constant Ki in test [1] is 1.82 ± 0.09 µM. Also, the “effect in non-transfected control cells” value in test [3] is “did not show any effect”. For the same compound, the Ki in test [2] amounted to 11.2 ± 0.5 µM. Also, the “inverse agonistic activity (effect on basal activity) at CB1” value in test [4] (BRET2, HEK293) is given as “less pronounced; also recorded: inverse agonistic activity”. For the same compound, in test [4], the “agonistic activity at human CB1” value is given as “no agonistic activity” and the IC50 was 5.22 ± 0.68 µM. For the same compound, the “agonistic activity at human CB2” value in test [5] is reported as “no agonistic activity”.
On to `COc1ccc2[nH]cc(C(c3ccccc3)(c3c[nH]c4ccccc34)C(F)(F)F)c2c1` (stereo not shown) [3a, 5-methoxy-3-(2,2,2-trifluoro-1-(1H-indol-3-yl)-1-phenylethyl)-1H-indole], for which the inhibitory constant (Ki) in test [1] was found to be 4.23 ± 0.03 µM; in test [2], 6.04 ± 0.11 µM.
One may read the EC50 as the concentration that produces a half-maximal response. In turn, `COc1ccc2[nH]cc(C(c3ccccc3)(c3c[nH]c4cc(F)ccc34)C(F)(F)F)c2c1` (stereo not shown) [3e] came in with an inhibitory constant (Ki) in test [1] of 3.21 ± 0.25 µM. The affinity in test [2] corresponds to a Ki of 4.47 ± 0.12 µM. In addition, the “inverse agonistic activity (effect on basal activity) at CB1” value in test [4] (BRET2, HEK293) is “reduced the basal activity; also recorded: inverse agonistic activity”. Further, in test [4], the “agonistic activity at human CB1” value is given as “no agonistic activity” and the IC50 worked out at 5.68 ± 0.54 µM. Further, the concentration giving a half-maximal response (EC50) in test [4] (reduction of basal activity, BRET2, HEK293, read-out: EC50, inverse agonist at CB1 receptors) is 0.786 ± 0.233 µM. Further, in test [5], the “agonistic activity at human CB2” value was “no agonistic activity”. Besides, the “inhibition of CB2 receptor activation” value in test [5] (antagonist mode, CP55,940 at its EC80, compared with CB1) is recorded as “weaker”.
Turning to `c1ccc2c(Cc3c[nH]c4ccccc34)c[nH]c2c1` [I, diindolylmethane], the results for the Ki in test [6] and in test [8] were 4.3 µM and 1.1 µM, respectively. Moreover, in test [7], the “functional activity at CB1 receptors” value is on record as “weak inverse agonist”.
Take `Fc1cc2[nH]cc(C(c3ccccc3)(c3c[nH]c4ccccc34)C(F)(F)F)c2cc1F` (stereo not shown) [3n]: the results for the Ki in test [1] and in test [2] were 2.04 ± 0.08 µM and 6.14 ± 0.13 µM, respectively.
